Drawing on patent US20240425529A1, “BORIC ACID DERIVATIVE” (SHOUYAO HOLDINGS (BEIJING) CO., LTD., priority 2021, published 2024), this text covers IC50 for 7 compounds.

The target in assay [1] is T1, LMP7 (Homo sapiens, UniProt P28062).
T1 construct: using MOLT-4 cell lysate as the enzyme source of LMP7; endogenous in cells; host or cells: MOLT-4 (human acute lymphoblastic leukemia cells)
The experiment in a line: Cytological inhibitory activity on LMP7 in MOLT-4 cells. Particulars: incubation for 2 hours with compound, read-out: Cytological activity data LMP7 Activity (MOLT-4Cell). Format: cell-based. The essentials: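 MOLT-4 cells pre-incubated 2 h with compound (8 concentrations, 5-fold dilution series from 2 mM DMSO stock, 5% FBS), washed and lysed. Lysate (20 ng/μl, 2× stock) reacted with Ac-ANW-AMC (100 μM, 2× stock) in 20 mM Tris pH 8.0, 0.5 mM EDTA, 1 h, 23 °C. Fluorescence at 345/445 nm; IC50 fitted.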

Assay [2] concerns the target T1, LMP7. Kind of assay: Enzymatic inhibitory activity on LMP7 (MOLT-4 cell lysate, Ac-ANW-AMC substrate). It counts as biochemical. Particulars: 1 hour pre-incubation. The essentials: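 Enzyme source was MOLT-4 cell lysate (20 ng/μl final) in 20 mM Tris pH 8.0, 0.5 mM EDTA, preincubated 1 h at 23 °C with compound at 9 final concentrations (0–2000 nM). Ac-ANW-AMC ([…]) was then added, 2 h at 23 °C in the dark. AMC fluorescence (ex 345/em 445 nm) gave the IC50.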

Structures are written as SMILES.

As to `O=C1COB([C@H](Cc2coc3ccccc23)NC(=O)C(=O)Nc2cnccn2)O1` [Ex. 73], the results for the IC50 in assay [1] and in assay [2] were 1.15 nM and 1.23 nM, respectively.
On the same counts, the results for `O=C(Nc1cnccn1)C(=O)N[C@@H](Cc1coc2ccccc12)B(O)O` [Ex. 9, (R)-(2-(benzofuran-3-yl)-1-(2-oxo-2-(pyrazin-2-ylamino)acetamido)ethyl) boronic acid] are 4.82 nM and 9.02 nM.
The corresponding values for `Cc1cnc(NC(=O)C(=O)N[C@@H](Cc2coc3ccccc23)B(O)O)s1` [Ex. 32, (R)-(2-(benzofuran-3-yl)-1-(2-oxo-2-((5-methylthiazol-2-yl)amino)acetamido)ethyl)boronic acid] are 1.72 nM and 4.6 nM.
On to `O=C(Nc1cc(Cl)ccn1)C(=O)N[C@@H](Cc1coc2ccccc12)B(O)O` [Ex. 49, (R)-(2-(benzofuran-3-yl)-1-(2-oxo-2-((4-chloropyridin-2-yl)amino)acetamido)ethyl)boronic acid], for which the results for the IC50 in assay [1] and in assay [2] were 1.9 nM and 1.51 nM, respectively.
As to `O=C(Nc1nc2ccccc2s1)C(=O)N[C@@H](Cc1coc2ccccc12)B(O)O` [Ex. 27, (R)-(2-(benzofuran-3-yl)-1-(2-oxo-2-((benzo[d]thiazol-2-yl)amino)acetamido)ethyl)boronic acid], the IC50 was found to be 1.58 nM in assay [1] and 3.53 nM in assay [2].
On the same counts, the results for `O=C(Nc1ccccn1)C(=O)N[C@@H](Cc1coc2ccccc12)B(O)O` [Ex. 12] are 3.77 nM and 9.64 nM.
The corresponding values for `CC1CC(C)(C)OB([C@H](Cc2coc3ccccc23)NC(=O)C(=O)Nc2cnccn2)O1` (some centres unmarked) [Ex. 67] are 0.79 nM and 1.59 nM.
